Data reported in patent US11414384B2, “P300/CBP hat inhibitors” (Constellation Pharmaceuticals, Inc., priority 2018, dated 2022).

Columns and labels:
[1] = biological target: p300 HAT domain (residues 1287-1666) (Homo sapiens (Human), UniProt Q09472); assay: p300 HAT SPA assay (scintillation proximity assay, acetylation of biotinylated H3(1-21) peptide); type: biochemical; settings: p300 HAT domain; average of at least 2 replicate titrations; read-out: P300 HAT SPA IC50
Summary of the method: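 Scintillation proximity readout of acetylated biotin-H3(1-21) captured on streptavidin plates after 1.5 hr at RT; enzyme was Ni2+/anion-exchange-purified HAT domain in 20 mM Hepes pH 7.5. Inhibitor IC50s calculated from the data.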

[2] = biological target: full length p300 (Homo sapiens (Human), UniProt Q09472); assay: full length p300 SPA assay; type: biochemical; settings: average of at least 2 replicate titrations, read-out: FL P300 IC50
Experimental: Reactions were initiated with 12.5 μL 2 μM biotinylated H3(1-21) peptide (New England Peptide) and run for 1 hr at RT, then quenched with 20 μL stop solution (200 mM Tris pH 8.0, 200 mM EDTA, 2M NaCl, 160 μM anacardic acid). 35 μL of the reaction volume was transferred to a 384-well streptavidin FlashPlate (PerkinElmer) using a Bravo liquid handler (Velocity 11) and incubated for 1.5 hr at RT. Plates were aspirated, washed with 95 μL wash buffer (15 mM Tris pH 8.5, 0.069 μM Brij-35), aspirated, sealed, and scintillation counts read on a Topcount (PerkinElmer). Data were analyzed in Genedata to determine inhibitor IC50 values.
The full length p300 SPA assay was run following the same protocol as p300 HAT SPA assay, but used 6 nM purified full length p300 (purchased from Active Motif) in place of the purified p300-HAT domain.

[3] = system: acetylation of chromatin at H3K18 (catalyzed by p300 and CBP) in HCT-116 cells; assay: H3K18Ac MSD cellular assay; type: cell-based; settings: 2 hr treatment, average of at least 2 replicate titrations
Experimental: Select compounds were also evaluated in a H3K18Ac MSD cellular assay that measures the ability of compounds to inhibit the acetylation of chromatin at H3K18, a process catalyzed by p300 and CBP. In a typical experiment the p300 HAT inhibitory activity inside cells of the compounds described herein was determined in accordance with the following experimental method. 20 k HCT-116 cells per well are plated in 75 μL RPMI+10% FBS media the night before treatment. Compounds plated in DMSO at 4× final concentration are resuspended in 30 μL RPMI+10% FBS, then 25 μL is combined with corresponding wells containing cells. Treated cells are incubated for 2 hr at 37° C., then lysed in 500 μL final volume and frozen at −80° C. MSD plates (Meso Scale Discovery) are coated overnight at 4° C. with 60 μL 1:500α-total histone antibody (Millipore MAB3422) in PBS. Plates are then blocked with 5% BSA in TBST shaking at RT for 1 hr, washed, and 30 μL lysate added to each well for 2 hr shaking at RT. Plates are washed and 25 μL 1:216α-H3K18ac antibody (CST 9675) in PBS added, then incubated for 1 hr shaking at RT. Plates are washed again, then 25 μL 1:1000 Sulfo-Tag goat a-rabbit antibody (Meso Scale Discovery R32Ab-1) in PBS is added for 1 hr shaking at RT. Plates are washed once more, then 150 μL 1× Read Buffer (MSD #R92TD-3) is added to all wells and read on MSD SECTOR Imager 2400 using the conventional read setup.

p300 HAT domain (residues 1287-1666), sequence (Q09472 1287-1666): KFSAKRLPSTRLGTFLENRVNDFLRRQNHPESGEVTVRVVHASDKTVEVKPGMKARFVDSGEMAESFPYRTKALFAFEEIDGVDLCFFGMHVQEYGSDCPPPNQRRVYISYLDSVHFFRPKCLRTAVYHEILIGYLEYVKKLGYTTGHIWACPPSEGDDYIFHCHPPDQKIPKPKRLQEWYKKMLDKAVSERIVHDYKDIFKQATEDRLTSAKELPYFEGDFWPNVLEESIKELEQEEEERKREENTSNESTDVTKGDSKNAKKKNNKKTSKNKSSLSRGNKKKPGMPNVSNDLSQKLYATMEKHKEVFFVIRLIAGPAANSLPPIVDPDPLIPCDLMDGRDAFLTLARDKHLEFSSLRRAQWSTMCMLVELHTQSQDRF
full length p300, sequence (Q09472 whole entry): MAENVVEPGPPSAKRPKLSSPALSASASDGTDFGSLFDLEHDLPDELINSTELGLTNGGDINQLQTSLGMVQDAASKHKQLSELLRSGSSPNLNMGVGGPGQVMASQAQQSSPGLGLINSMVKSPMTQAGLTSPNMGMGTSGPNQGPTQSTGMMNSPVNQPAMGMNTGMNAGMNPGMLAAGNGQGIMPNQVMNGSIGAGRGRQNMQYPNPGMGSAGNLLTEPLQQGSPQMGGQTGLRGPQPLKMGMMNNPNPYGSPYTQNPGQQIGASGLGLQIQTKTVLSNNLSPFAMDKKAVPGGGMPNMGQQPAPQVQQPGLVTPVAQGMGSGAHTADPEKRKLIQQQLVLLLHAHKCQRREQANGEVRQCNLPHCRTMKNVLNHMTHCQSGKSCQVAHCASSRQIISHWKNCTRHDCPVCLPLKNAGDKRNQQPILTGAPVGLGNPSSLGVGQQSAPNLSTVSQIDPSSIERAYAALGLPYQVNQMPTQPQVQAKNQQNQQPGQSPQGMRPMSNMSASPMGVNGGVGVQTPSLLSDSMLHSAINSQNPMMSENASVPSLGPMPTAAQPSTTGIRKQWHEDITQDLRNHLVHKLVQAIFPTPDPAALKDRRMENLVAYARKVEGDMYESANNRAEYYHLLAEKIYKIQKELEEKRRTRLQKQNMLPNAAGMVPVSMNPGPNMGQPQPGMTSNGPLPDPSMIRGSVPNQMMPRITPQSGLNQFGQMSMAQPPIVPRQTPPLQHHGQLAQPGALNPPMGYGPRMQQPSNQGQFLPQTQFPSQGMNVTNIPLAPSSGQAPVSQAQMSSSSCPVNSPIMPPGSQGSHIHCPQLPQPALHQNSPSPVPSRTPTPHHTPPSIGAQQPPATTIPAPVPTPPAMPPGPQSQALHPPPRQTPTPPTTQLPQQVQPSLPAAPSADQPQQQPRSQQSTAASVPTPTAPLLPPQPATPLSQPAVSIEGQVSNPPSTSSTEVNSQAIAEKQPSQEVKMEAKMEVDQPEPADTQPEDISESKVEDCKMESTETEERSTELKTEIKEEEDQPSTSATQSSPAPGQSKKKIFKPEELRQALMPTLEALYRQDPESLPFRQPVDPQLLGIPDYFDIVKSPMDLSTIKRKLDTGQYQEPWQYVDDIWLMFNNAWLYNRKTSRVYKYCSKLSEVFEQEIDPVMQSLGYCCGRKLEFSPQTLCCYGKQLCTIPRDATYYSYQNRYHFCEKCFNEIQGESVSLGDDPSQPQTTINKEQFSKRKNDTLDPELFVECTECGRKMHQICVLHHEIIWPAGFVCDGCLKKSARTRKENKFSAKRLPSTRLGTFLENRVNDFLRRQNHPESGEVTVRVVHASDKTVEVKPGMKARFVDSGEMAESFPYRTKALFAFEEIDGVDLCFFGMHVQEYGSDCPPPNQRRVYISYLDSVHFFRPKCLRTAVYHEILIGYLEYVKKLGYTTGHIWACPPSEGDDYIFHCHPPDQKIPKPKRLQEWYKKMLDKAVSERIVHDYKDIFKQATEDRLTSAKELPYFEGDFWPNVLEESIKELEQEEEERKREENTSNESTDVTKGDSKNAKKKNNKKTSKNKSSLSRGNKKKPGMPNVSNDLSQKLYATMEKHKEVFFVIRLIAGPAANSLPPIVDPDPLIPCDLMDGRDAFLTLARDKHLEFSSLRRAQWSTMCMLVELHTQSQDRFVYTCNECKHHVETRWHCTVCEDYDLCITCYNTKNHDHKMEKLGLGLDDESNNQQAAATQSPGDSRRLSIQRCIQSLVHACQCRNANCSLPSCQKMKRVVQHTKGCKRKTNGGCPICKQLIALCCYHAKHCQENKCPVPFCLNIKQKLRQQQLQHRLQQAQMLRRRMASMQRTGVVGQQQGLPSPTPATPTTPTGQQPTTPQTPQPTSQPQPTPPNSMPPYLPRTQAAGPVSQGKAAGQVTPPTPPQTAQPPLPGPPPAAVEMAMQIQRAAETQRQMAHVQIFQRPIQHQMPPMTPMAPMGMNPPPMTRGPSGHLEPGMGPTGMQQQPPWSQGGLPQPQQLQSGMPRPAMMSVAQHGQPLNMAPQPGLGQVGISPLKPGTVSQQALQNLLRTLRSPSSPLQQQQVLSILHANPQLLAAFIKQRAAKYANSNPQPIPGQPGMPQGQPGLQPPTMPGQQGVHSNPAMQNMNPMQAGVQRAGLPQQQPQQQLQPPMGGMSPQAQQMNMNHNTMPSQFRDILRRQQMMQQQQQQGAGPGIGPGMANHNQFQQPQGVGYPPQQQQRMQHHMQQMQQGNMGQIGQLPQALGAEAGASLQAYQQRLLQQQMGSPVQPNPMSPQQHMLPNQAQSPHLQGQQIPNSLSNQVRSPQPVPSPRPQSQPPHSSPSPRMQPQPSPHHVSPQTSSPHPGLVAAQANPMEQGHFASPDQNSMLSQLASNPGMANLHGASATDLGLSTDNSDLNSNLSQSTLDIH

Compound | IC50 [1] [µM] | IC50 [2] [µM] | EC50 ([3]; Homo sapiens, HCT-116, 2 h) [µM] | EC50 [3] [µM]
COCCNC(=O)c1ccc2c(C(=O)C(NCCc3ccc(Cl)cc3Cl)c3ccccc3)c[nH]c2c1 (single isomer, unassigned) [154 Isomer 2] | 1.62 | 0.00895 |  | 
COc1ccc(CCNC(C(=O)c2c[nH]c3c(CCC(=O)N(C)C)cccc23)c2ccccc2)cc1 (single isomer, unassigned) [29 Isomer 2] | 6.6 | 0.22 |  | 
O=C(c1n[nH]c2ccccc12)C(NCCc1ccc(Cl)cc1)c1ccccc1 (single isomer, unassigned) [47 Isomer 2] | 20.3 | 1.3 |  | 
COc1ccccc1CCNC(C(=O)c1c[nH]c2ccccc12)c1ccccc1 (single isomer, unassigned) [6 Isomer 2] | 1.83 | 0.082 |  | 
COCCNC(=O)c1cccc2c(C(=O)C(NCCc3ccc(Cl)cc3Cl)c3ccccc3)c[nH]c12 (single isomer, unassigned) [150 Isomer 1] | 7.97 | 0.393 |  | 
CN(C)CCNC(=O)c1ccc2c(C(=O)C(NCCc3ccc(Cl)cc3Cl)c3ccccc3)c[nH]c2c1 (single isomer, unassigned) [153 Isomer 2] | 0.0798 | 0.00572 |  | 
O=C(c1c[nH]c2ccccc12)C(NCCc1ccc(Cl)cc1)c1ccccn1 (racemic) [42 Racemic, (rac)-2-((4-chlorophenethyl)amino)-1-(1H-indol-3-yl)-2-(pyridin-2-yl)ethan-1-one] | 9.14 | 0.196 |  | 
O=C(c1cnc2ccccn12)C(NCCc1ccc(Cl)cc1)c1ccccc1 (single isomer, unassigned) [46 Isomer 1] | 9 | 13.1 |  | 
COCCNC(=O)c1ccc2c(C(=O)C(NCCc3ccc(Cl)cc3Cl)c3ccccc3)c[nH]c2c1 (single isomer, unassigned) [154 Isomer 1] | 0.325 | 0.0377 |  | 
N#Cc1ccc(CCNC(C(=O)c2c[nH]c3cc(C(=O)NCCN4CCCC4=O)ccc23)c2ccccc2)cc1 (single isomer, unassigned) [164 Isomer 1] | 3.66 | 0.19 |  | 
CC(CNC(C(=O)c1c[nH]c2ccccc12)c1ccccc1)c1ccc(Cl)cc1 (single isomer, unassigned) [26 Isomer 4] | 0.204 |  |  | 0.139
N#Cc1ccc(CCNC(C(=O)c2c[nH]c3cc(C(=O)NC4COC4)ccc23)c2ccccc2)cc1 (single isomer, unassigned) [174 Isomer 1] | 0.965 |  |  | > 1
CCC(CNC(C(=O)c1c[nH]c2ccccc12)c1ccccc1)c1ccc(Cl)cc1 (single isomer, unassigned) [59 Isomer 4] | 0.827 |  | 0.829 | 
O=C(c1c[nH]c2ccccc12)C(NCCc1ccc(Cl)cc1Cl)c1ccccc1 (single isomer, unassigned) [19 Isomer 2] | 0.706 |  | 0.282 | 
CC(Cc1ccc(Cl)cc1Cl)NC(C(=O)c1c[nH]c2cc(-c3cnn(C)c3)ccc12)c1ccccc1 (single isomer, unassigned) [97 Isomer 4] | 6.71 |  |  | > 10
Cn1cc(-c2ccc3c(C(=O)C(NCCc4ccc(C(N)=O)cc4)c4ccccc4)cnn3c2)cn1 (single isomer, unassigned) [179 Isomer 1] | 0.302 |  | 0.192 | 
N#Cc1ccc(CCNC(C(=O)c2cnn3cc(-c4cn[nH]c4)ccc23)c2ccccc2)cc1 (single isomer, unassigned) [99 Isomer 2] | 0.0156 |  | 0.0216 | 
CC(CNC(C(=O)c1c[nH]c2ccccc12)c1ccccc1)c1ccc(Cl)cc1 (single isomer, unassigned) [26 Isomer 2] | 4.56 |  |  | 2.53
CC(Cc1ccc(Cl)cc1Cl)NC(C(=O)c1c[nH]c2cc(-c3cnn(C)c3)ccc12)c1ccccc1 (single isomer, unassigned) [97 Isomer 3] | > 30 |  |  | > 10
CCN1CC(NC(=O)c2ccc3c(C(=O)C(NCCc4ccc(C#N)cc4)c4ccccc4)c[nH]c3c2)C1 (single isomer, unassigned) [163 Isomer 2] | 0.0419 |  | > 1 | 
CC(Cc1ccc(Cl)cc1Cl)NC(C(=O)c1c[nH]c2cc(-c3cnn(C)c3)ccc12)c1ccccc1 (single isomer, unassigned) [97 Isomer 1] | 0.437 |  |  | 0.135

Second part, the compound after the results:

IC50 [1] [µM] | IC50 [2] [µM] | EC50 ([3]; Homo sapiens, HCT-116, 2 h) [µM] | EC50 [3] [µM] | Compound
7.15 | 0.197 |  |  | O=C(c1c[nH]c2ccccc12)C(NCCc1ccncc1)c1ccccc1 (single isomer, unassigned) [11 Isomer 2]
> 60 | 1.75 |  |  | NS(=O)(=O)c1ccc(CCNC(C(=O)c2c[nH]c3ncccc23)c2ccccc2)cc1 (single isomer, unassigned) [33 Isomer 1]
28.8 | 0.819 |  |  | CN(C)C(=O)c1ccc(CCNC(C(=O)c2c[nH]c3ccccc23)c2ccccc2)cc1 (single isomer, unassigned) [135 Isomer 2]
0.442 | 0.03 |  |  | Cn1cc(-c2ccc3c(C(=O)C(NCCc4ccc(C(=O)O)cc4)c4ccccc4)c[nH]c3c2)cn1 (single isomer, unassigned) [138 Isomer 1]
> 60 | 8.5 |  |  | NS(=O)(=O)c1ccc(CCNC(C(=O)c2c[nH]c3cccc(Cl)c23)c2ccccc2)cc1 (single isomer, unassigned) [12 Isomer 1]
4.09 | 0.285 |  |  | N#Cc1ccc(CCNC(C(=O)c2c[nH]c3cc(C(=O)O)ccc23)c2ccccc2)cc1 (single isomer, unassigned) [155 Isomer 2]
47.4 | 1.86 |  |  | NS(=O)(=O)c1ccc(CCNC(C(=O)c2c[nH]c3ccc(Cl)cc23)c2ccccc2)cc1 (single isomer, unassigned) [14 Isomer 2]
0.566 |  | 0.429 |  | CN1CCN(c2ccc3c(C(=O)C(NCCc4ccc(S(N)(=O)=O)cc4)c4ccccc4)c[nH]c3c2)CC1 (single isomer, unassigned) [124 Isomer 2]
0.019 |  | 0.0926 |  | Cn1cc(-c2ccc3c(C(=O)C(NCCc4ccc(C#N)cc4)c4ccccc4)c[nH]c3c2)nn1 (single isomer, unassigned) [114 Isomer 2]
0.422 |  | 0.0717 |  | CC(=O)N1CCC(c2ccc3c(C(=O)C(NCCc4ccc(Cl)cc4)c4ccccc4)c[nH]c3c2)CC1 (single isomer, unassigned) [65 Isomer 2]
0.389 |  | 0.53 |  | Cn1cnc(-c2ccc3c(C(=O)C(NCCc4ccc(S(N)(=O)=O)cc4)c4ccccc4)c[nH]c3c2)c1 (single isomer, unassigned) [115 Isomer 2]
3.1 |  | 1.44 |  | Cc1ccc2c(C(=O)C(NCCc3ccc(S(N)(=O)=O)cc3)c3ccccc3)c[nH]c2c1 (single isomer, unassigned) [56 Isomer 2]
0.642 |  | 0.243 |  | NC(=O)c1ccc(CCNC(C(=O)c2c[nH]c3cc(-n4ccnc4)ccc23)c2ccccc2)cc1 (single isomer, unassigned) [181 Isomer 1]
0.987 |  |  | 0.193 | N#Cc1ccc(CCNC(C(=O)c2c[nH]c3cc(-n4ccnc4)ccc23)c2ccccc2)cc1 (single isomer, unassigned) [120 Isomer 1]
0.258 |  | 0.308 |  | Cc1ncc(-c2ccc3c(C(=O)C(NCCc4ccc(Cl)cc4)c4ccccc4)c[nH]c3c2)[nH]1 (single isomer, unassigned) [110 Isomer 2]
